Here are results for 88 molecules from ChEMBL document CHEMBL1135760, “Anilinoquinazoline inhibitors of fructose 1,6-bisphosphatase bind at a novel allosteric site: synthesis, in vitro characterization, and X-ray crystallography” (J Med Chem, 2002).

The structures appear in SMILES notation. Bounds are passed on as bounds.

Usually inhibition stands for the percentage by which the read-out fell short of the control. Higher therefore signals a strong effect. For orientation: IC50 means the point on the concentration scale where inhibition reaches its midpoint.

One assay deals with T1, Epidermal growth factor receptor (Homo sapiens, UniProt P00533). Nature of the assay: (§1) Inhibition of (EGFR) epidermal growth factor receptor tyrosine kinase. The following applies: concentration not given here.
T1 sequence (P00533 whole entry): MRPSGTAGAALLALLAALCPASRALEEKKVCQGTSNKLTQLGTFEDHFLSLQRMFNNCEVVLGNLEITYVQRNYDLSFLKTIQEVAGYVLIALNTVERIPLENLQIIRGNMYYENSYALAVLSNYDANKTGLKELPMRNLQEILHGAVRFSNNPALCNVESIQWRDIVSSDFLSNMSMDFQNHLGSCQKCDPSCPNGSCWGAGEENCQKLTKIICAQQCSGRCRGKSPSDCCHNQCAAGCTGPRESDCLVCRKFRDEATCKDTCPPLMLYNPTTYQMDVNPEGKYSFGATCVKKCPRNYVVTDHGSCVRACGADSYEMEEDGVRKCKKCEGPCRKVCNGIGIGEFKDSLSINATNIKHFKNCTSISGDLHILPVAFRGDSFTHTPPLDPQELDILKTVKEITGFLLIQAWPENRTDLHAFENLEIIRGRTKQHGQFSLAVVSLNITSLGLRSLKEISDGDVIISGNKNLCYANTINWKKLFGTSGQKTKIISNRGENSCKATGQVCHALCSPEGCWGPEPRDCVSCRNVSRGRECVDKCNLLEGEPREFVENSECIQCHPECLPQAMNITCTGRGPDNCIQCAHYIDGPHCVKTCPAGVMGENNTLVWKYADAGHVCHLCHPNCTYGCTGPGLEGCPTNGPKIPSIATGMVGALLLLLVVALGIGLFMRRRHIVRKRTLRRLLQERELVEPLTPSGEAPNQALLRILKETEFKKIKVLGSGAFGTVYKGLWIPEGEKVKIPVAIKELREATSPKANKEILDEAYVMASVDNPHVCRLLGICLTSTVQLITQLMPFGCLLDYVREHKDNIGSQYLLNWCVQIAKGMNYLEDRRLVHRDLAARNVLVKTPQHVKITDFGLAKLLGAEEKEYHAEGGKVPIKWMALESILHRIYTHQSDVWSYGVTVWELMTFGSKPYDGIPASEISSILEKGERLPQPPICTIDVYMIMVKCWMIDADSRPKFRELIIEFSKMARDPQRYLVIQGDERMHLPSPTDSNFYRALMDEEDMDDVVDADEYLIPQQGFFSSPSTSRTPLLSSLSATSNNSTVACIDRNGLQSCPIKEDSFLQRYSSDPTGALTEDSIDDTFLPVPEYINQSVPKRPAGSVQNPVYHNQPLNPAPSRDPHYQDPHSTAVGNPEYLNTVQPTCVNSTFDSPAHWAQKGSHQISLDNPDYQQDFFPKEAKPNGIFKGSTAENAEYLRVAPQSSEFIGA
`CCOc1cc2nc(CCCCl)nc(Nc3cccc(-c4csc(C)n4)c3)c2cc1OCC` displayed an inhibition of 31%. In turn, `CCOc1cc2nc(CCl)nc(Nc3cccc(-c4csc(C)n4)c3)c2cc1OCC` yielded an inhibition of 10%. Still for that read-out and setting: the value for `CCOc1cc2nc(CCCl)nc(Nc3cccc(-c4csc(C)n4)c3)c2cc1OCC` was 11%.

The next assay has as its target T1, Epidermal growth factor receptor. The description is as §1.
Details: not given
Turning to `CCOc1cc2nc(CC)nc(Nc3cccc(-c4csc(C)n4)c3)c2cc1OCC`, the IC50 turned out to be 9.3 µM. `CCOc1cc2ncnc(Nc3cccc(-c4cnc(C)o4)c3)c2cc1OCC` had an IC50 above 10 µM.

Take `CCOc1cc2ncnc(Nc3cccc(-c4cocn4)c3)c2cc1OCC`: half-maximal inhibition (IC50) was put at 0.72 µM. Consider `CCOc1cc2ncnc(Nc3cccc(-c4nc[nH]n4)c3)c2cc1OCC`, for which the midpoint of inhibition, the IC50, lay at 0.39 µM. `C#Cc1cc(Nc2ncnc3cc(OC)c(OC)cc23)ccc1F` yielded an IC50 of 0.004 µM.

On to `CCOc1cc2ncnc(Nc3cccc(-c4csc(N)n4)c3)c2cc1OCC`, for which the IC50 is 0.56 µM. As to `CCOc1cc2ncnc(Nc3cccc(-c4cncnc4)c3)c2cc1OCC`, the IC50 worked out at 1.1 µM.

Molecule `CCOc1cc2ncnc(Nc3cccc(-c4cscn4)c3)c2cc1OCC` showed an IC50 of 0.018 µM. Regarding `CCOc1cc2ncnc(Nc3cccc(-c4cncs4)c3)c2cc1OCC`, the IC50 amounted to 0.011 µM. In turn, `CCOc1cc2ncnc(Nc3cccc(-c4nccs4)c3)c2cc1OCC` showed an IC50 of 0.002 µM. In the case of `CCOc1cc2nc(C)nc(Nc3cccc(-c4csc(C)n4)c3)c2cc1OCC`, it took 9 µM to reach half-maximal inhibition (IC50).

Consider `CCOc1cc2ncnc(Nc3cccc(-c4ccco4)c3)c2cc1OCC`, for which the IC50 was determined as 0.003 µM. As for `CCOc1cc2ncnc(Nc3cccc(-c4cc[nH]n4)c3)c2cc1OCC`, 0.011 µM corresponded to half-maximal inhibition (IC50).

Biological target in a further assay: not listed separately
Nature of the assay: Inhibition of human recombinant wild type fructose-1,6-bisphosphatase (F16BP).
Details: not given
With `CCOc1cc2ncnc(Nc3cccc(-c4ccccc4)c3)c2cc1OCC`, the IC50 was above 10 µM. On to `CCOc1nc(-c2cccc(Nc3ncnc4cc(OCC)c(OCC)cc34)c2)cs1`, for which the IC50 came out at 6.1 µM.

In the case of `CCOc1cc2nc(CC)nc(Nc3cccc(-c4csc(C)n4)c3)c2cc1OCC`, the IC50 was 1.5 µM. For `CCCc1nc(Nc2cccc(-c3csc(C)n3)c2)c2cc(OCC)c(OCC)cc2n1`, the IC50 is 1.4 µM.

For `CCOc1cc2nc(CC(=O)O)nc(Nc3cccc(-c4csc(C)n4)c3)c2cc1OCC`, the IC50 turned out to be 0.96 µM. Regarding `COc1cc2c(Nc3cccc(-c4csc(C)n4)c3)ncnc2cc1OCC(C)C`, the IC50 was above 10 µM. The same measure, in the same setting: next, `CCOc1cc2ncnc(Nc3cc(-c4csc(C)n4)c(F)cc3F)c2cc1OCC`: above 10 µM; `CCOc1cc2ncnc(Nc3cccc(-c4csc(Cc5ccccc5)n4)c3)c2cc1OCC`: above 10 µM. `CCOc1cc2ncnc(Nc3cccc(-c4cnc(C)o4)c3)c2cc1OCC`: the IC50 was determined as 4 µM. In the case of `CCOc1cc2nc(CC(C)C)nc(Nc3cccc(-c4csc(C)n4)c3)c2cc1OCC`, the IC50 was found to be 1.7 µM.

In the case of `CCCCOc1cc2ncnc(Nc3cccc(-c4csc(C)n4)c3)c2cc1OC`, the IC50 was above 10 µM. As to `CCOc1cc2ncnc(Nc3cccc(-c4cccc(C)c4)c3)c2cc1OCC`, the IC50 was above 10 µM. Same read-out and setting: the value for `CCOc1cc2ncnc(Nc3cccc(-c4csc(C)n4)c3)c2cc1OC` was 3.4 µM.

On to `CCOc1cc2ncnc(Nc3cc(-c4csc(C)n4)ccc3Cl)c2cc1OCC`, for which the IC50 turned out to be 1.7 µM. Regarding `CCOc1cc2ncnc(Nc3cccc(-c4csc(-c5ccccc5)n4)c3)c2cc1OCC`, the IC50 was above 10 µM. Turning to `CCOc1cc2ncnc(Nc3cccc(-c4cocn4)c3)c2cc1OCC`, the IC50 amounted to 3.6 µM. As to `COc1cc2c(Nc3cccc(-c4csc(C)n4)c3)ncnc2cc1OC(C)C`, the IC50 was determined as 2.3 µM. Turning to `CCOc1cc2nc(C(F)(F)F)nc(Nc3cccc(-c4csc(C)n4)c3)c2cc1OCC`, the IC50 is above 10 µM. On to `CCOc1cc2nc(CCl)nc(Nc3cccc(Br)c3)c2cc1OCC`, for which the IC50 is above 10 µM. The same measure, in the same setting: next, `CCCc1nc(-c2cccc(Nc3ncnc4cc(OCC)c(OCC)cc34)c2)cs1`: above 10 µM; `CCOc1cc2nc(Cn3ccnc3)nc(Nc3cccc(-c4csc(C)n4)c3)c2cc1OCC`: 0.77 µM. The same measure, in the same setting: the value for `CCOc1cc2ncnc(Nc3cccc(-c4cccnc4)c3)c2cc1OCC` was 1.4 µM; that for `CCOc1cc2ncnc(Nc3cc(-c4csc(C)n4)ccc3F)c2cc1OCC` was 0.48 µM; that for `CCOc1cc2ncnc(Nc3cccc(-c4nc[nH]n4)c3)c2cc1OCC` was 0.64 µM.

Take `C#Cc1cc(Nc2ncnc3cc(OC)c(OC)cc23)ccc1F`: the IC50 came out at 0.25 µM. The same measure, in the same setting: next, `CCOc1cc2ncnc(Nc3cc(-c4csc(C)n4)ccc3CC)c2cc1OCC`: 2.1 µM. As to `CCOc1cc2nc(C(C)C)nc(Nc3cccc(-c4csc(C)n4)c3)c2cc1OCC`, the IC50 amounted to 5 µM. In the case of `CCOc1cc2ncnc(Nc3ccc(Cl)c(-c4csc(C)n4)c3)c2cc1OCC`, the IC50 worked out at 5.3 µM. `CCCOc1cc2ncnc(Nc3cccc(-c4csc(C)n4)c3)c2cc1OC`: the IC50 is 5.6 µM. On the same count and under the same terms, the value for `CCOc1cc2nc(CN(C)C)nc(Nc3cccc(-c4csc(C(N)=O)n4)c3)c2cc1OCC` was 2.4 µM; that for `COCCOc1cc2ncnc(Nc3cccc(-c4csc(C)n4)c3)c2cc1OC` was above 10 µM.

`CCOc1cc2c(Nc3cccc(-c4csc(C)n4)c3)ncnc2c(OCC)c1OCC`: the IC50 was above 10 µM. On to `CCOc1cc2nc(CCCCl)nc(Nc3cccc(-c4csc(C)n4)c3)c2cc1OCC`, for which the IC50 is 4.1 µM. As to `CCOc1cc2nc(CC(C)C)nc(Nc3cccc(Br)c3)c2cc1OCC`, the IC50 was above 10 µM. Still for that read-out and setting: next, `CCOc1cc2nc(Cl)nc(Nc3cccc(-c4csc(C)n4)c3)c2cc1OCC`: 2.6 µM; `CCOc1cc2ncnc(Nc3cc(-c4csc(C)n4)ccc3OC)c2cc1OCC`: 0.99 µM. `CCOc1cc2ncnc(Nc3cccc(-c4csc(N)n4)c3)c2cc1OCC`: the IC50 amounted to 3.5 µM. Take `Cc1nc(-c2cccc(Nc3ncnc4cc5ccccc5cc34)c2)cs1`: the IC50 is above 10 µM. As for `CCOc1cc2nc(Cc3ccccc3)nc(Nc3cccc(-c4csc(C)n4)c3)c2cc1OCC`, the IC50 was above 10 µM. For `CCOc1cc2ncnc(Nc3cccc(-c4csc(OC)n4)c3)c2cc1OCC`, the IC50 was 0.78 µM.

As for `COc1cc2c(Nc3cccc(-c4csc(C)n4)c3)ncnc2cc1OC1CCCC1`, the IC50 is above 10 µM. Take `CCOc1cc2nc(CN3CCCC3)nc(Nc3cccc(-c4csc(C)n4)c3)c2cc1OCC`: the IC50 stood at 6.1 µM.

With `COc1cc2ncnc(Nc3cccc(-c4csc(C)n4)c3)c2cc1OC(C)C`, the IC50 is above 10 µM.

`CCC(C)Oc1cc2ncnc(Nc3cccc(-c4csc(C)n4)c3)c2cc1OC` (centres undefined): the IC50 was 1.3 µM. For the molecule `CCOc1cc2nc(CCl)nc(Nc3cccc(-c4csc(C)n4)c3)c2cc1OCC`, the IC50 is 0.87 µM.

Consider `CCCOc1cc2ncnc(Nc3cccc(-c4csc(C)n4)c3)c2cc1OCC`, for which the IC50 was 1 µM. Still for that read-out and setting: the value for `CCOc1cc2ncnc(Nc3cccc(-c4cncnc4)c3)c2cc1OCC` was 1.2 µM; that for `CCCCOc1cc2c(Nc3cccc(-c4csc(C)n4)c3)ncnc2cc1OC` was above 10 µM. With `CCOc1cc2ncnc(Nc3cccc(-c4csc(COC)n4)c3)c2cc1OCC`, the IC50 was 7.3 µM. As to `CCOc1cc2ncnc(Nc3cccc(-c4csc(N(C)C)n4)c3)c2cc1OCC`, the IC50 was determined as 8 µM.

In the case of `CCOc1cc2nc(CS(C)(=O)=O)nc(Nc3cccc(-c4csc(C)n4)c3)c2cc1OCC`, the IC50 was determined as 2.1 µM. Take `CCOc1cc2c(Nc3cccc(-c4csc(C)n4)c3)ncnc2cc1OC(C)C`: the IC50 turned out to be 0.42 µM. `CCOc1cc2ncnc(Nc3cccc(-c4coc(C)n4)c3)c2cc1OCC`: the IC50 is 0.5 µM. Take `CCOc1cc2ncnc(Nc3cccc(-c4nc(C(N)=O)cs4)c3)c2cc1OCC`: the IC50 came out at 0.83 µM. Take `CCOc1cc2ncnc(Nc3cccc(C(C)=O)c3)c2cc1OCC`: the IC50 is above 10 µM. On the same count and under the same terms, the value for `CCOc1cc2ncnc(Nc3cccc(-c4csc(C(=O)O)n4)c3)c2cc1OCC` was above 10 µM.

For the molecule `CCOc1cc2ncnc(Nc3cccc(-c4nc(C)cs4)c3)c2cc1OCC`, the IC50 is 0.65 µM.

`CCOc1cc2ncnc(Nc3cccc(-c4cscn4)c3)c2cc1OCC`: the IC50 is 0.39 µM. As for `CCOc1cc2ncnc(Nc3cccc(-c4csc(C5CC5)n4)c3)c2cc1OCC`, the IC50 was 0.83 µM.

Take `CCOc1cc2nc(CCN)nc(Nc3cccc(-c4csc(C)n4)c3)c2cc1OCC`: the IC50 was determined as 0.22 µM.

On to `CCOc1ccc(-c2csc(C)n2)cc1Nc1ncnc2cc(OCC)c(OCC)cc12`, for which the IC50 was determined as 1.8 µM.

Regarding `CCOc1cc2ncnc(Nc3cc(-c4csc(C)n4)ccc3Br)c2cc1OCC`, the IC50 is above 10 µM. `CCOc1cc2ncnc(Nc3cc(-c4csc(C)n4)ccc3C)c2cc1OCC`: the IC50 was 1.8 µM.

On to `CCOc1cc2ncnc(Nc3cccc(-c4ccccc4C)c3)c2cc1OCC`, for which the IC50 is above 10 µM. For the molecule `CCOc1cc2ncnc(Nc3cccc(-c4cncs4)c3)c2cc1OCC`, the IC50 was 0.98 µM. Same read-out and setting: next, `CCOc1cc2nc(CN(C)C)nc(Nc3cccc(-c4csc(C)n4)c3)c2cc1OCC`: 2 µM; `CCOc1cc2ncnc(Nc3ccc(F)c(-c4csc(C)n4)c3F)c2cc1OCC`: above 10 µM; `CCOc1cc2nc(CS(C)(=O)=O)nc(Nc3cccc(Br)c3)c2cc1OCC`: above 10 µM. `Cc1nc(-c2cccc(Nc3ncnc4ccccc34)c2)cs1`: the IC50 was above 10 µM.

For the molecule `CCOc1cc2ncnc(Nc3cc(-c4csc(C)n4)cc(C(F)(F)F)c3)c2cc1OCC`, the IC50 is above 10 µM. Take `Cc1nc(-c2cccc(Nc3ncnc4cc5c(cc34)OCCO5)c2)cs1`: the IC50 is above 10 µM. Take `CCOc1cc2ncnc(Nc3cccc(-c4csc(NN)n4)c3)c2cc1OCC`: the 50% inhibitory concentration (IC50) amounted to 4.5 µM. Turning to `CCOc1cc2ncnc(Nc3cccc(-c4nccs4)c3)c2cc1OCC`, the IC50 turned out to be 0.38 µM.

`CCOc1cc2nc(C)nc(Nc3cccc(-c4csc(C)n4)c3)c2cc1OCC`: the IC50 is 1 µM. Still for that read-out and setting: the value for `CCOc1cc2ncnc(Nc3cccc(-c4ccccn4)c3)c2cc1OCC` was 0.39 µM; that for `CCOc1cc2ncnc(Nc3cccc(-c4csc(NC)n4)c3)c2cc1OCC` was 0.8 µM. The same measure, in the same setting: the value for `COc1cc2ncnc(Nc3cccc(-c4csc(C)n4)c3)c2cc1OC` was 4.4 µM; that for `CCOc1cc2ncnc(Nc3ccc(F)c(-c4csc(C)n4)c3)c2cc1OCC` was 0.61 µM. Still for that read-out and setting: next, `CCOc1cc2ncnc(Nc3cccc(C(=O)CBr)c3)c2cc1OCC`: above 10 µM; `COCCOc1cc2c(Nc3cccc(-c4csc(C)n4)c3)ncnc2cc1OC`: above 10 µM; `CCOc1cc2ncnc(Nc3cccc(-c4ccco4)c3)c2cc1OCC`: 1.4 µM.

Consider `CCOc1cc2nc(COC)nc(Nc3cccc(-c4csc(C)n4)c3)c2cc1OCC`, for which the IC50 was determined as 1.4 µM. Regarding `CCOc1cc2nc(CN)nc(Nc3cccc(-c4csc(C)n4)c3)c2cc1OCC`, the IC50 is 1.5 µM. For the molecule `CCNCc1nc(Nc2cccc(-c3csc(C)n3)c2)c2cc(OCC)c(OCC)cc2n1`, the IC50 came out at 6 µM. The same measure, in the same setting: next, `CCOc1cc2ncnc(Nc3cccc(-c4cc[nH]n4)c3)c2cc1OCC`: 0.73 µM.

For `CCOc1cc2c(Nc3cccc(-c4csc(C)n4)c3)ncnc2cc1OC`, the IC50 was 1.2 µM. Take `CCOc1cc2ncnc(Nc3cccc(-c4ccc(C)cc4)c3)c2cc1OCC`: the 50% inhibitory concentration (IC50) was above 10 µM. Take `CCOc1cc2nc(CCCl)nc(Nc3cccc(-c4csc(C)n4)c3)c2cc1OCC`: the IC50 turned out to be 1 µM.
